# Assay results taken from patent US20250011878A1, “METHOD TO DETECT RNA BIOMARKERS” (ITALFARMACO SPA, priority 2021, published 2025).
# Target: T1, HDAC6 (Mus musculus, UniProt Q9Z2V5)
# T1 construct: Spleens were collected and total splenocytes suspension was prepared; from tissue; host or cells: spleen (splenocytes) of BALB/c mice bearing CT26 tumors
# T1 sequence (Q9Z2V5 1-1149): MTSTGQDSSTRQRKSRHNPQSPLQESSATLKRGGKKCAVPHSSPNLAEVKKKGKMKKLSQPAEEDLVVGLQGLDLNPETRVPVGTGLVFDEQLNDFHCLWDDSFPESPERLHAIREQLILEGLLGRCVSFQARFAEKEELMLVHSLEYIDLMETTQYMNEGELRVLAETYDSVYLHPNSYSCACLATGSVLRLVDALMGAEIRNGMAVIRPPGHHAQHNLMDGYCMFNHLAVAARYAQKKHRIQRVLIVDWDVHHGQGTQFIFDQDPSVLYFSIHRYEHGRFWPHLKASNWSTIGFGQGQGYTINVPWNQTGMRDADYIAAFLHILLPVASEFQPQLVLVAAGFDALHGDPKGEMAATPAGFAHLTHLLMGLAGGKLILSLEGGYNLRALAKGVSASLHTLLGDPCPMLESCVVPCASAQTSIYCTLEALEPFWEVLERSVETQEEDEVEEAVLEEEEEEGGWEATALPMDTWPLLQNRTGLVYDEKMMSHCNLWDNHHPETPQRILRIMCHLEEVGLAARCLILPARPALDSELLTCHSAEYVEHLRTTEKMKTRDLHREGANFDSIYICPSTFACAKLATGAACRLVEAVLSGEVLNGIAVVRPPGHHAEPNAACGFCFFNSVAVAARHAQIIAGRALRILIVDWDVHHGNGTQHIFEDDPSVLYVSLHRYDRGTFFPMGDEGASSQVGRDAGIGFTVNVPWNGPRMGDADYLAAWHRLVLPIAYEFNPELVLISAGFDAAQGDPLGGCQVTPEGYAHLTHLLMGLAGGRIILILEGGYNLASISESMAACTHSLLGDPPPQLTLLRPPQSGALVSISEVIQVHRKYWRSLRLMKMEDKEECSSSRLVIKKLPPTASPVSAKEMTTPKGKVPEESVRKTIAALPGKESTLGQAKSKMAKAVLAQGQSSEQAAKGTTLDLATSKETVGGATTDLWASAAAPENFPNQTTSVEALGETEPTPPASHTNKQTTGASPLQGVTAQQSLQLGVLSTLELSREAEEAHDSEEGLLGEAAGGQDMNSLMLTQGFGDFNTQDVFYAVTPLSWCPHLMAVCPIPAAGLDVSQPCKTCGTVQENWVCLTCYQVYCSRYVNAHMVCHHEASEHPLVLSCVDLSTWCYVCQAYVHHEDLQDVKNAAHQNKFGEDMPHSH
# Assay: Target engagement: tubulin acetylation in spleen of CT26 tumor bearing mice (western blot)
# Type: in vivo, BALB/c mice
# Details: 50 mpk os, 8 administrations (Table 9)
# Method: Adult BALB/c mice were injected s.c. with 1×10^6 CT26 tumor cells (diluted to 100 μl with phosphate buffered saline) and treated with anti-PD1 or ITF3756 when the tumor volume reached 75-100 mm^3, to explore the modulation of genes in the tumor microenvironment by RNAseq. Since ITF3756 acts on the PD-1/PD-L1 axis, this approach allows the identification of genes specific and common to both treatments. The overall schedule is described in Table 9.
# Whole cell extracts were obtained by lysing mice spleens with Triton Buffer (50Mm Tris-HCl ph 7.5, 250 mM NaCl, 50 mM NaF, 1 mM EDTA pH 8, 0.1% Triton), supplemented with protease and phosphatase inhibitors (Roche, Germany). Proteins were separated by SDS-PAGE, transferred onto PVDF membranes and blocked with PBS-T (Phosphate-buffared saline and 0.1% Tween-20 containing 5% non-fat dry milk for one hour at room temperature (RT). The incubation with primary antibodies was performed for two hours at RT, followed by incubation with the appropriate horseradish peroxidase-conjugated secondary antibody. Detection was performed with ECL Western Blot Reagent (Amerscham). The antibodies used were: mouse anti acetylated tubulin (Sigma, T6793), mouse anti tubulin (Sigma, T6074), goat anti-mouse IgG (H+L)-HRP conjugate (Bio-Rad, 1706516).
# Densitometry analysis was performed using ImageJ software. […]
# To ascertain HDAC6 inhibition by ITF3756, the spleen of the animals were collected at all sacrifice time points (1 hour, 4 hours, 18 hours and 24 hours). Tubulin acetylation and total tubulin were detected by western blotting.
# Tumor bearing animals were sacrificed at various time points after the last administration. Spleens were collected and total splenocytes suspension was prepared. Pelleted cells were lysed to obtain a total protein extract […] by electrophoresis. Tubulin and acetyl-tubulin were detected after western blotting using specific antibodies.
smiles,measurement,setting,value
"O=C(NO)c1ccc(Cn2nnnc2-c2cccs2)cc1 [ITF3756, N-hydroxy-4-((5-(thiophen-2-yl)-1 H-tetrazol-1-yl)methyl)benzamide]",tubulin acetylation in spleen,1 hour after the last treatment,strong increase
same,tubulin acetylation in spleen,4 hours after the last treatment,maintained until 4 hours
same,tubulin acetylation in spleen,18 hours after the last treatment,still high and consistent
same,tubulin acetylation in spleen,24 hours after the last treatment,"still detectable, but not in all the animals analysed"
